# Results taken from paper PMC12040969, “Design, synthesis, in silico studies, and apoptotic antiproliferative activity of novel thiazole-2-acetamide derivatives as tubulin polymerization inhibitors” (Frontiers in Chemistry, 2025).
# “And” between values parts separate entries of the source, which are not always exact repeats. Equal entries are not always repeated. Where two headings read alike, the source gives them in different places.
# Assays:
# tubulin [1] = system: tubulin; design: method as in El-Abd et al., 2022; details: ref El-Abd et al., 2022; read-out: Tubulin polymerization IC50; cited from earlier work
# [2] = Cell viability assay (MTT), normal cells; format: cell-based; details: human, MCF-10A normal mammary gland epithelial cells, four-day incubation
# [3] = system: Caspase-3 in MDAMB-231 cancer cell line; experiment: Caspase-3 activation assay; format: cell-based, human; details: MDAMB-231 cells
# Source text: (§1) […]. Supplementary Appendix A provides more information.
# [4] = system: Caspase-9 in MDAMB-231 cancer cell line; experiment: Caspase-9 activation assay; format: cell-based, human; details: MDAMB-231 cells
# Protocol: […]. Compound 10o was the least efficient derivative as caspase-9 activators (0.90 ng/mL).
# as §1
# [5] = system: Bax in MDAMB-231 cancer cell line; experiment: Bax level assay; format: cell-based, human; details: MDAMB-231 cells
# Source text: as §1
# [6] = system: Bcl-2 in MDAMB-231 cancer cell line; experiment: Bcl-2 level assay; format: cell-based, human; details: MDAMB-231 cells
# Source text: as §1
# prostatic - PC-3 = experiment: Antiproliferative assay (MTT) PC-3
# breast - MCF-7 = experiment: Antiproliferative assay (MTT) MCF-7
# colon - HCT-116 = experiment: Antiproliferative assay (MTT) HCT-116
# - MDAMB-231 = experiment: Antiproliferative assay (MTT) MDAMB-231
# pancreatic - MDAMB-231 = experiment: Antiproliferative assay (MTT) MDAMB-231
# [7] = system: four human cancer cell lines (HCT-116, PC-3, MCF-7, MDAMB-231); experiment: Antiproliferative assay, mean of four cell lines (GI50); details: Homo sapiens, read-out: GI50 (average IC50)
# tubulin [8] = experiment: Tubulin polymerization inhibition assay (Cytoskeleton kit); details: for Tub %inh: 30 min, YB-EGY run; for Tub K.Activity: EC = 120, YB-EGY run;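 for all read-outs here: Cell-free tubulin polymerization read by fluorescent reporter enhancement over a 30 min reaction, with the compound-free kit control taken as 100% activity and inhibition relative to it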
compound,measurement,setting,value
COc1cc(-c2csc(NC(=O)CNc3ccc([N+](=O)[O-])cc3)n2)cc(OC)c1OC [IV],IC50,tubulin [1],2 ± 0.12 µM
"COc1ccc(/C=C/C(=O)c2sc(SCC(=O)Nc3nc(-c4ccc(C)cc4)cs3)nc2C)cc1 [Compound 10o, (E)-2-((5-(3-(4-methoxyphenyl)acryloyl)-4-methylthiazol-2-yl)thio)-N-(4-(p-tolyl)thiazol-2-yl)acetamide]","viability at 96 h, 50 µM",[2],90%
same,Caspase-3 Conc,[3],605 ± 5 pg/mL
same,Caspase-3 Fold change,[3]; relative to untreated control,9 fold
same,Caspase-9 Conc,[4],0.90 ng/mL and 0.90 ± 0.10 ng/mL
same,Caspase-9 Fold change,[4]; relative to untreated control,9 fold
same,Bax Conc,[5],285 pg/mL and 285 ± 7 pg/mL
same,Bax Fold change,[5]; relative to untreated control,35 fold
same,Bcl-2 Conc,[6],1.05 ng/mL
same,Bcl-2 Fold reduction,[6]; relative to untreated control,5 fold
same,Average of Relative viability of cells (%),"prostatic - PC-3; PC-3, 1.56 µM",99.3%
same,Average of Relative viability of cells (%),"prostatic - PC-3; PC-3, 3.125 µM",87.4%
same,Average of Relative viability of cells (%),"prostatic - PC-3; PC-3, 6.25 µM",61.1%
same,Average of Relative viability of cells (%),"prostatic - PC-3; PC-3, 12.5 µM",48.2%
same,Average of Relative viability of cells (%),"prostatic - PC-3; PC-3, 25 µM",31.6%
same,Average of Relative viability of cells (%),"prostatic - PC-3; PC-3, 50 µM",23.7%
same,Average of Relative viability of cells (%),"prostatic - PC-3; PC-3, 100 µM",14.3%
same,IC50,"prostatic - PC-3; read-out: Antiproliferative activity IC50 ± SEM (µM) PC-3, PC-3, MTT",13 ± 1 µM
same,Average of Relative viability of cells (%),"breast - MCF-7; MCF-7, 1.56 µM",73.4%
same,Average of Relative viability of cells (%),"breast - MCF-7; MCF-7, 3.125 µM",61.6%
same,Average of Relative viability of cells (%),"breast - MCF-7; MCF-7, 6.25 µM",45.1%
same,Average of Relative viability of cells (%),"breast - MCF-7; MCF-7, 12.5 µM",29.7%
same,Average of Relative viability of cells (%),"breast - MCF-7; MCF-7, 25 µM",20.3%
same,Average of Relative viability of cells (%),"breast - MCF-7; MCF-7, 50 µM",11.9%
same,Average of Relative viability of cells (%),"breast - MCF-7; MCF-7, 100 µM",7.2%
same,IC50,"breast - MCF-7; read-out: Antiproliferative activity IC50 ± SEM (µM) MCF-7, MCF-7, MTT",5 ± 0.4 µM
same,Average of Relative viability of cells (%),"colon - HCT-116; HCT-116, 1.56 µM",89.1%
same,Average of Relative viability of cells (%),"colon - HCT-116; HCT-116, 3.125 µM",66.5%
same,Average of Relative viability of cells (%),"colon - HCT-116; HCT-116, 6.25 µM",51.6%
same,Average of Relative viability of cells (%),"colon - HCT-116; HCT-116, 12.5 µM",24.5%
same,Average of Relative viability of cells (%),"colon - HCT-116; HCT-116, 25 µM",22.7%
same,Average of Relative viability of cells (%),"colon - HCT-116; HCT-116, 50 µM",15.2%
same,Average of Relative viability of cells (%),"colon - HCT-116; HCT-116, 100 µM",7.8%
same,IC50,"colon - HCT-116; read-out: Antiproliferative activity IC50 ± SEM (µM) HCT-116, HCT-116, MTT",6 ± 0.4 µM
same,Average of Relative viability of cells (%),"- MDAMB-231; MDAMB-231, 1.56 µM",61.2%
same,Average of Relative viability of cells (%),"- MDAMB-231; MDAMB-231, 3.125 µM",47.1%
same,Average of Relative viability of cells (%),"- MDAMB-231; MDAMB-231, 6.25 µM",37.3%
same,Average of Relative viability of cells (%),"- MDAMB-231; MDAMB-231, 12.5 µM",26.7%
same,Average of Relative viability of cells (%),"- MDAMB-231; MDAMB-231, 25 µM",17.6%
same,Average of Relative viability of cells (%),"- MDAMB-231; MDAMB-231, 50 µM",10.2%
same,Average of Relative viability of cells (%),"- MDAMB-231; MDAMB-231, 100 µM",4.5%
same,"More potency than sorafenib, MDAMB-231",pancreatic - MDAMB-231; MDAMB-231 cancer cell line,2.7 fold
same,IC50,"pancreatic - MDAMB-231; read-out: Antiproliferative activity IC50 ± SEM (µM) MDAMB-231, MDAMB-231, MTT",3 ± 0.1 µM
same,IC50,[7],7 µM
same,Tub %inh,tubulin [8]; conc 0.1 (unit not given),16%
same,Tub K.Activity,tubulin [8]; conc 0.1 (unit not given),100.77
same,Tub %inh,tubulin [8]; conc 1 (unit not given),34%
same,Tub K.Activity,tubulin [8]; conc 1 (unit not given),79.173
same,Tub %inh,tubulin [8]; conc 10 (unit not given),54.8%
same,Tub K.Activity,tubulin [8]; conc 10 (unit not given),54.254
same,Tub %inh,tubulin [8]; conc 50 (unit not given),76.2%
same,Tub K.Activity,tubulin [8]; conc 50 (unit not given),28.504
same,Tub %inh,tubulin [8]; conc 100 (unit not given),90.9%
same,Tub K.Activity,tubulin [8]; conc 100 (unit not given),10.964
same,IC50,"tubulin [8]; read-out: Tubulin inhibition IC50 ± SEM, triplicate for each tested concentration",3.62 ± 0.11 µM
